Assay results from article PMC12349723, “Computationally accelerated identification of P-glycoprotein inhibitors” (PLOS One, 2025).
Several values for one entry are separate records, joined by “and”; a condition that tells them apart may be missing. Identical values can stand only once. Like-named read-outs stand apart in the source and are kept apart here.

Key:
Format in all cases: cell-based, human
A2780-ADR cells = assay: MTT viability assay, reversal of MDR in P-gp overexpressing A2780-ADR cells; settings: for Reversal of MDR in A2780-ADR cells: 15 µM compound with or without 500 nM PTX, 48 h, MTT; for Mean % Survival / % Survival (individual sample) / viability at 15 µM: A2780-ADR cells; for viability at 15 µM: Homo sapiens, A2780 ADR
Protocol: (§1) The chemotherapeutic sensitive DU145 human prostate cancer cells and the multidrug resistant sub-line, DU145-TXR, were generous gifts from Dr. Evan Keller (University of Michigan, Ann Arbor, MI). The MDR, P-gp overexpressing DU145-TXR cells were maintained under positive selection pressure by supplementing complete medium with 10 nM paclitaxel (Acros Organics, NJ). In addition to the aforementioned cell lines, the chemotherapeutic sensitive A2780 ovarian cancer cells (93112519, Sigma) and the multidrug resistant A2780-ADR (93112520, Sigma) were maintained in complete RPMI media consisting of RPMI-1640 with L-glutamine, 10% fetal bovine serum (FBS; Corning), 100 U/mL penicillin and 100 μg/mL streptomycin in a humidified incubator at 37 °C and 5% CO2. The MDR, P-gp overexpressing A2780-ADR cell line was maintained under positive selection pressure by supplementing complete medium with 100 nM doxorubicin (Fisher Scientific, NJ). The non-cancerous HFL1 (human lung fibroblast) cell line cell line was a generous gift from Dr. Robert Harrod (Southern Methodist University, Dallas, TX) and was maintained in complete F12K media consisting of F12K with 10% fetal bovine serum, 100 U/mL penicillin, and 100 µg/mL streptomycin (Gibco). Flasks and 96 well plates that were used with the non-cancerous line HFL1 were pre-treated with 0.1 mg/ml Collagen Type 1 (Gibco) and rinsed with PBS (Fisher).
(§2) Culture of the DU145, DU145-TXR, and HFL1 cell lines was performed as described in [8]. Culture of the A2780 and A2780-ADR cell lines was performed as described in [9]. MTT assays were performed as described in [8] with minor modifications. LC-MS/MS accumulation assays were performed as described in {Nanayakkara, 2018 #173} [9] with some modifications. […] The inhibitor concentration was lowered to 15 µM here, as the goal of the study was to identify compounds that were effective in reversing MDR at low concentrations, and to determine if the expanded virtual-assisted methods improved on our first-draft attempt. Compounds 56–98 were pre-screened using Resazurin cell viability assays: cells were incubated with 15 µM compound with or without 500 nM PTX for 48 hours, after which cell survival was assessed similar to [39]. Data represent the mean of two separate experiments, with n = 3 samples per experiment (n = 6 total) (S4 Table). The top performing compounds from this initial screen were re-tested with MTT viability assays against DU145-TXR cells, as described below.
(§3) MTT assays measure the reduction of yellow, water soluble 3-(4,5-dimethylthiazol-2-yl)-2,5-diphenyltetrazolium bromide (MTT) to blue, insoluble formazan crystals by cellular reductase processes in living cells. Cells were trypsinized from monolayers and seeded in complete medium in 96 well plates. Cancerous cell lines (DU145, DU145-TXR, A2780, A2780-ADR) were seeded at 3,000 cells per well in complete RPMI medium. The non-cancerous HFL1 line was seeded at 4,000 cells per well in complete F12K medium, in collagen-treated plates (Collagen Type 1, Gibco). Cells were incubated with experimental compounds for 48 hours at 37 °C and 5% CO2 in a humidified incubator. At 48 hours, MTT was added (20 µL/well of 5 mg/mL MTT in PBS) to each well. After incubation for 4 hours, the media was removed, and the formazan crystals were dissolved in 100 µL DMSO per well. Plates containing the semi-adherent A2780 or A2780-ADR lines were spun at 1400 rpm for 3 minutes prior to aspiration of media, and the addition of DMSO. Plates were shaken for 10 minutes at 500 rpm on an Orbital shaker (LabDoctor from MidSci, St Louis, MO). The absorbance was measured at 570 nm using a Bio-Tek Cytation 5 (Bio-Tek, Winooski, VT). The measured absorbance value was correlated with the number of metabolically active cells in that well, corrected for absorbance of media. […]

DU145-TXR cells = assay: MTT viability assay, reversal of MDR (re-sensitization to paclitaxel) in P-gp overexpressing DU145-TXR cells; settings: for % Survival, mean / % Survival: 15 µM compound + 500 nM PTX (Paclitaxel, Taxol); for % Survival, mean / % Survival / viability at 15 µM: DU145-TXR; for Re-sensitization of DU145-TXR cells to PTX (reversal of MDR): 15 µM compound with or without 500 nM PTX, 48 h, MTT, re-sensitization = 30% or greater decrease in cell viability; for viability at 15 µM: Homo sapiens, 15 µM Compound Alone
Protocol: as §1, §2, §3

A2780 cells = assay: MTT viability assay, parental A2780 cells, with or without PTX; settings: for Increase of PTX toxicity against parental A2780 cells: 15 µM compound with or without 500 nM PTX, 48 h, MTT; for Mean % Survival / % Survival (individual sample): A2780 cells; for Mean % Survival / viability at 15 µM: mean of 8 or 12 samples; for % Survival (individual sample): single samples; for viability at 15 µM: Homo sapiens, A2780, A2780 cells, read-out: Mean % Survival
Protocol: as §1, §2, §3

[1] = 15 µM compound + 500 nM PTX, mean of 12 samples
[2] = 15 µM compound + 500 nM PTX, single samples (trials 1-3, samples 1-4)
[3] = 15 µM compound alone, single samples (trials 1-3, samples 1-4)
[4] = 15 µM compound alone, mean of 12 samples, read-out: Mean % Survival
[5] = mean of 8 samples, read-out: % Survival, mean
[6] = trial 1, sample 1, read-out: % Survival
[7] = trial 1, sample 2, read-out: % Survival
[8] = trial 1, sample 3, read-out: % Survival
[9] = trial 1, sample 4, read-out: % Survival
[10] = trial 2, sample 1, read-out: % Survival
[11] = trial 2, sample 2, read-out: % Survival
[12] = trial 2, sample 3, read-out: % Survival
[13] = trial 2, sample 4, read-out: % Survival

| SMILES | Mean % Survival (A2780-ADR cells; [1]) | % Survival (individual sample) (A2780-ADR cells; [2]) | % Survival (individual sample) (A2780-ADR cells; [3]) | viability at 15 µM (A2780-ADR cells; [4]) | % Survival, mean (DU145-TXR cells; mean of 8 samples) | % Survival (DU145-TXR cells; trial 1, sample 1) | % Survival (DU145-TXR cells; trial 1, sample 2) | % Survival (DU145-TXR cells; trial 1, sample 3) | % Survival (DU145-TXR cells; trial 1, sample 4) | % Survival (DU145-TXR cells; trial 2, sample 1) | % Survival (DU145-TXR cells; trial 2, sample 2) | % Survival (DU145-TXR cells; trial 2, sample 3) | % Survival (DU145-TXR cells; trial 2, sample 4) | Re-sensitization of DU145-TXR cells to PTX (reversal of MDR) (DU145-TXR cells) | viability at 15 µM (DU145-TXR cells; [5]) | viability at 15 µM (DU145-TXR cells; [6]) | viability at 15 µM (DU145-TXR cells; [7]) | viability at 15 µM (DU145-TXR cells; [8]) | viability at 15 µM (DU145-TXR cells; [9]) | viability at 15 µM (DU145-TXR cells; [10]) | also measured |
| --- | --- | --- | --- | --- | --- | --- | --- | --- | --- | --- | --- | --- | --- | --- | --- | --- | --- | --- | --- | --- | --- |
| Cc1onc(-c2ccccc2)c1-c1nnc(Cn2cnc3c(oc4ccccc43)c2=O)o1 [Compound 78, Cc1onc(c1-c1nnc(Cn2cnc3c4ccccc4oc3c2=O)o1)-c1ccccc1] | 41.5% | 48% and 26% | 81% and 88% | 82.7% | 40.6% | 40% | 45% | 44% | 45% | 34% | 40% | 35% | 41% | re-sensitized DU145-TXR cells to PTX | 93.3% | 90% | 107% | 99% | 93% | 91% | Reversal of MDR in A2780-ADR cells (A2780-ADR cells): reversed MDR in A2780-ADR cells; viability at 15 µM (DU145-TXR cells; [11]): 89%; viability at 15 µM (DU145-TXR cells; [12]): 93%; viability at 15 µM (DU145-TXR cells; [13]): 83%; Increase of PTX toxicity against parental A2780 cells (A2780 cells): did not greatly increase the toxicity of PTX against the parental A2780 cells; Mean % Survival (A2780 cells; 15 µM compound + 500 nM PTX): 13.4%; % Survival (individual sample) (A2780 cells; 15 µM compound + 500 nM PTX): 8% and 18%; % Survival (individual sample) (A2780 cells; 15 µM compound alone): 110%; viability at 15 µM (A2780 cells; 15 µM compound alone): 91.4% |
| COc1cccc(N2CCN(c3ccc4nnc(CCC(=O)Nc5ccc(F)c(F)c5)n4n3)CC2)c1 [Compound 101, COc1cccc(c1)N1CCN(CC1)c1ccc2nnc(CCC(=O)Nc3ccc(F)c(F)c3)n2n1] | 41.5% | 46% | 93% | 88% | 57.4% | 48% | 48% | 37% | 48% | 83% | 70% | 66% | 58% | re-sensitized DU145-TXR cells to PTX | 112% | 121% | 110% | 111% | 113% | 117% | Reversal of MDR in A2780-ADR cells (A2780-ADR cells): reversed MDR in A2780-ADR cells; viability at 15 µM (DU145-TXR cells; [11]): 106%; viability at 15 µM (DU145-TXR cells; [12]): 109%; viability at 15 µM (DU145-TXR cells; [13]): 104%; Increase of PTX toxicity against parental A2780 cells (A2780 cells): did not greatly increase the toxicity of PTX against the parental A2780 cells; Mean % Survival (A2780 cells; 15 µM compound + 500 nM PTX): 14.3%; % Survival (individual sample) (A2780 cells; 15 µM compound alone): 64%; viability at 15 µM (A2780 cells; 15 µM compound alone): 91.9% |
| NS(=O)(=O)c1cccc(NC(=O)CSc2nnnn2C2CC2)c1 [Compound 89, NS(=O)(=O)c1cccc(NC(=O)CSc2nnnn2C2CC2)c1] | 74.6% | 54% | 90% and 86% | 89.9% | 97.9% | 108% | 120% | 99% | 113% | 85% | 83% | 88% | 87% | did not reverse MDR in DU145-TXR cells | 105% | 115% | 120% | 122% | 116% | 103% | viability at 15 µM (A2780-ADR cells; 15 µM compound alone, single samples (trials 1-3, samples 1-4), read-out: % Survival (individual sample)): 91%; viability at 15 µM (DU145-TXR cells; [11]): 92%; viability at 15 µM (DU145-TXR cells; [12]): 95%; viability at 15 µM (DU145-TXR cells; [13]): 79%; Mean % Survival (A2780 cells; 15 µM compound + 500 nM PTX): 10.3%; % Survival (individual sample) (A2780 cells; 15 µM compound + 500 nM PTX): 8% and 12%; % Survival (individual sample) (A2780 cells; 15 µM compound alone): 96%; viability at 15 µM (A2780 cells; 15 µM compound alone): 87.9% |
| O=C(c1nc(-c2ccc3cc[nH]c3c2)no1)N1CCN(c2nsc3ccccc23)CC1 [Compound 70, O=C(N1CCN(CC1)c1nsc2ccccc12)c1nc(no1)-c1ccc2cc[nH]c2c1] | 62.6% | 62% and 59% and 61% | 116% | 114% | 47.0% | 51% | 55% | 50% | 54% | 41% | 36% | 46% | 43% | re-sensitized DU145-TXR cells to PTX | 91.3% | 92% | 103% | 101% | 96% | 90% | Reversal of MDR in A2780-ADR cells (A2780-ADR cells): reversed MDR in A2780-ADR cells; viability at 15 µM (DU145-TXR cells; [11]): 83%; viability at 15 µM (DU145-TXR cells; [12]): 85%; viability at 15 µM (DU145-TXR cells; [13]): 80%; Increase of PTX toxicity against parental A2780 cells (A2780 cells): did not greatly increase the toxicity of PTX against the parental A2780 cells; Mean % Survival (A2780 cells; 15 µM compound + 500 nM PTX): 22.6%; % Survival (individual sample) (A2780 cells; 15 µM compound + 500 nM PTX): 14%; % Survival (individual sample) (A2780 cells; 15 µM compound alone): 88%; viability at 15 µM (A2780 cells; 15 µM compound alone): 89.4% |
